Test results from US11028427B2, “Systems and methods for proteomic activity analysis using DNA-encoded probes” (priority 2015, dated 2021).

Assays:
BSA [1] = target: T1, BSA (Bos taurus, UniProt P02769); experiment: Bio-layer interferometry analysis of binding to BSA; set-up: species or system bovine; conditions: BSA at 10 μM; data not shown
Procedure: (§1) This crosslinking likely reflects the propensity of BSA to bind to hydrophobic small molecules and potentially to sulfonamides specifically. Thus, this labeling may still be considered ligand-dependent.
DNA conjugates were purified on a Varian Pro Star HPLC system and analytical analysis on an Agilent 1100 series HPLC system, both using Agilent Microsorb-MV 300-5 C18 250×4.6 mm reverse phase columns. Analytical separations were performed using 100 mM triethylammonium acetate (TEAA), pH 5.5 in water (A) or 100 mM triethylammonium acetate in 90% MeCN (B) with a linear gradient from 5-60% B over 22 minutes. Purifications were performed using the previous or 0.75% (v/v) 1,1,1,3,3,3-hexafluoropropan-2-ol, and 10 μM EDTA to pH 7.0 with triethylamine in water (A) or 90% MeOH (B) with a linear gradient from 5-50% B over 22 minutes. ESI-MS analysis was completed using an ABSciex 4500 QTrap from fractions collected from HFIP-based HPLC purifications. MALDI analysis was completed on an Applied Biosystems Voyager DE PRO instrument operated by the Purdue University Campus-Wide Mass Spectrometry Center after TEAA-based purification, ethanol precipitation, and ZipTip cleanup. On-DNA ligand dissociation constants were determined using a ForteBio Octet Red384. […] All gel images were recorded by a GE Healthcare Typhoon Trio+ with gel band quantifications determined using ImageJ software.

BSA [2] = target: T1, BSA; experiment: Crosslinking to BSA in reactions lacking the target protein, SDS-PAGE; assay type: binding, bovine; conditions: reactive group phenyl azide (5); reactions that lacked the target protein
Procedure: as §1
Photocrosslinking was performed as described above, except the system was allowed to incubate with both the ligand-ssDNA and reactive group-ssDNA′ for 30 minutes at RT. Irradiation was completed by exposure to a 4W 356 nm UV light source at 4° C. for 1 hour, quenched by the addition 6×SDS-loading buffer, and directly analyzed by SDS-PAGE. Gels were imaged immediately for FAM fluorescence and then Coomassie stained.

[3] = target: Biotinylated B. CAII immobilized on magnetic beads (Bos taurus, UniProt P00921); experiment: Enrichment of ligands via solid-phase affinity pulldown, qPCR; assay type: binding, bovine; conditions: for Enrichment (fold change relative to non-ligand (Bz) DNA construct): Solid Phase Affinity Pull down
Sequence of Biotinylated B. CAII immobilized on magnetic beads (P00921 whole entry): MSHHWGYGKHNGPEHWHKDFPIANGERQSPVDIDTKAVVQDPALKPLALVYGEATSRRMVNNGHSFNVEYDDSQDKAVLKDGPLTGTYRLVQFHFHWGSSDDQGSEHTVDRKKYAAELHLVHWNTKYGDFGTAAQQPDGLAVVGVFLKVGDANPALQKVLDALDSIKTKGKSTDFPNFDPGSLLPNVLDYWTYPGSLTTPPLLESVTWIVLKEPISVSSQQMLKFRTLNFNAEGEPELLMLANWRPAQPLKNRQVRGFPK
Excerpt: To prepare constructs for test selections, two CAII ligands and a non-ligand control (FIG. 17) were synthesized on a 5′-amine-modified, 40-mer oligonucleotide, which contained a PEG spacer between two 20-mer sequences as previously described. Using these oligos as primers in a PCR with unique 100-mer templates gave 100-mer dsDNA products tethered to the ligand-containing 20-mer ssDNA. DNA templates assigned to each ligand 1302 contained a unique, internal 20-mer sequence for use as a specific priming site to enable qPCR analysis of ligand enrichments. A mock library was then prepared by mixing ligand constructs GL-CBS and D-CBS at 0.1 nM each with an excess of control, non-ligand construct (Bz) (10 nM).
Using this mixture, test selections were conducted using the crosslinking approach with the sulfonyl fluoride oligo or using a traditional solid-phase selection with CAII immobilized on magnetic beads.
Biotinylated B. CAII (1.2× based on magnetic bead capacity) was immobilized onto pre-washed Nanolink Streptavidin Magnetic Beads by incubating in 0.1 M sodium phosphate, pH 8.0, 0.25 M NaCl, 0.02% (v/v) Tween-20, 1.0 mg/mL tRNA, 10 μM BSA for 2 h at RT. The magnetic beads were then separated and supernatant removed. The CAII-bound magnetic beads were then washed with the above buffer three times and a premix of ligand-dsDNA and non-ligand-dsDNA (0.1 nM and 10 nM, respectively) in the above buffer (in the appropriate volume to give the desired effective protein concentration) was added and incubated at RT for 1.5 h. The magnetic beads were then separated and DNA supernatant removed. The CAII-bound magnetic beads were then washed with the above buffer five times, maintaining the same effective protein concentration in each wash. After the final wash, the magnetic beads were suspended in […] and heated at 95° C. for 5 min. qPCR analysis of the premix and magnetic bead elution was completed by comparison of CT standard curves of identical dsDNA constructs.

biotinylated B. CAII = biotinylated B. CAII (Bos taurus, UniProt P00921); experiment: Enrichment of ligands via crosslinking (SDS + stringent washes), qPCR; assay type: binding, bovine; conditions: 1 μM CAII
Sequence of biotinylated B. CAII (P00921 whole entry): as above

[4] = test system: caspase 3 in lysates from HeLa cells; experiment: Caspase 3 activity in HeLa cell lysates with DNA-encoded probe, qPCR; assay type: cell-based; conditions: HeLa cell lysates with vs without staurosporine treatment to induce apoptosis
PKA = PKA (Homo sapiens, UniProt P17612); experiment: PKA peptide substrate kcat/Km comparison; assay type: biochemical
Excerpt: This extracellular PKA (ecPKA) and other ectokinase activities have recently garnered interest as useful cancer markers. However, the low levels of activity present challenges for detection using conventional methods. Conventional techniques to detect ecPKA in patient samples have relied exclusively on radioactive assays; however, exposure to radioactivity is problematic for those performing the assays, as is the cumbersome amount of paperwork and red tape associated obtaining approval for the use of radioactive assays and the disposal of radioactive waste. However, the PKA level in the serum of healthy individuals has been estimated at about 3 pM, which is below other conventional assay detection limits and, thus, problematic. Using the techniques described herein, a DNA-peptide substrate probe was synthesized based on the highly specific protein inhibitor for PKA—protein kinase inhibitor (PKI)—with the sequence […]. This peptide has about a 100-fold greater kcat/Km than the RRFSL peptide for PKA and provided a significant increase (e.g., a 100-fold) in assay sensitivity. Accordingly, the method 300 for detecting proteomic activity using DNA-encoded probes could provide sensitivity for detection of PKA activity in the bloodstream of a subject to accurately identify upregulation, for example, of ecPKA, which can be indicative of cancer.

T1 sequence (P02769 25-607): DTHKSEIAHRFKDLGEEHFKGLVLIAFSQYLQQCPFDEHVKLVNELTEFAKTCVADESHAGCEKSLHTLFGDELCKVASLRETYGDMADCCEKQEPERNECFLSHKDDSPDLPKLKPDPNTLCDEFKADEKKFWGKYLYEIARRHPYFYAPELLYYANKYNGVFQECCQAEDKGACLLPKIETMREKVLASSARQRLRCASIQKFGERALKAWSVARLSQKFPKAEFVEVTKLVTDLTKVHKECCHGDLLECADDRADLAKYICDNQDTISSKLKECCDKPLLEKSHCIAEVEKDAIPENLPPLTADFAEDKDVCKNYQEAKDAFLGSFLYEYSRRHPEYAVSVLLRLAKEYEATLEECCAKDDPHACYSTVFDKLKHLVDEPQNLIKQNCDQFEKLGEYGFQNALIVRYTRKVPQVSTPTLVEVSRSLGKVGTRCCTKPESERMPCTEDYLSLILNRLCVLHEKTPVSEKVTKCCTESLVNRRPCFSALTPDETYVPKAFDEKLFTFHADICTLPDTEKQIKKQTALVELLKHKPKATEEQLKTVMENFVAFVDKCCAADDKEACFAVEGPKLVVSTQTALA

Q: For “glycylleucine carboxybenzylsulfonamide [GL-CBS]”, which “Binding to BSA” value (BSA [1]) is on record?
A: The value was “did not indicate binding”.

Q: And the BSA crosslinking (BSA [2])?
A: Its BSA crosslinking is “significant levels of BSA crosslinking”.

Q: What about the “Overall enrichment in solid-phase selection compared to crosslinking selection (lower)” value ([3]; 1 μM CAII) of the same compound?
A: The value was 20 fold.

Q: And the “Recovery in solid-phase selection compared to crosslinking selection (greater)” value ([3]; 1 μM CAII)?
A: The value was “approximately 5 fold”.

Q: What about the “Enrichment (fold change relative to non-ligand (Bz) DNA construct)” value ([3]; 1 μM CAII) of the same compound?
A: The value was 720 fold.

Q: And the “Enrichment (fold change relative to non-ligand (Bz) DNA construct)” value ([3]; 17 μM CAII (estimated))?
A: The value was 610 fold.

Q: What about the “Enrichment (fold change relative to non-ligand (Bz) DNA construct)” value (biotinylated B. CAII; Without X-linking (3'-OH ssDNA)) of the same compound?
A: The value was 22 fold.

Q: And the “Enrichment (fold change in concentration of ligand-DNA construct relative to non-ligand (Bz) DNA construct)” value (biotinylated B. CAII; X-linking with 3 (sulfonyl fluoride))?
A: Its value is 17,000 fold.

Q: Which “Increase in caspase activity” value [4] does the source give for CN[C@@H]1C[C@H]2O[C@@](C)([C@@H]1OC)n1c3ccccc3c3c4c(c5c6ccccc6n2c5c31)C(=O)NC4 [staurosporine] here?
A: Its value is about 6 fold.

Q: For GRTGRRNSI, which “kcat/Km relative to the RRFSL peptide” value (PKA) is on record?
A: Its value is about 100 fold.
